32 compounds from ChEMBL document CHEMBL6096692, “Discovery of 2(1H)-Quinoxalinone Derivatives as Potent and Selective MAT2A Inhibitors for the Treatment of MTAP-Deficient Cancers” (J Med Chem, 2025) can be followed below.

In assay [1] the target is S-adenosylmethionine synthase isoform type-2 (Homo sapiens, UniProt P31153). Description: Inhibition of MAT2A (unknown origin) using L-methionine and ATP as substrate preincubated with compound for 10 mins followed by substrate addition and measured after 60 mins by kinase-glo max reagent based microplate reader analysis.
Chain of S-adenosylmethionine synthase isoform type-2 (P31153 whole entry, canonical isoform): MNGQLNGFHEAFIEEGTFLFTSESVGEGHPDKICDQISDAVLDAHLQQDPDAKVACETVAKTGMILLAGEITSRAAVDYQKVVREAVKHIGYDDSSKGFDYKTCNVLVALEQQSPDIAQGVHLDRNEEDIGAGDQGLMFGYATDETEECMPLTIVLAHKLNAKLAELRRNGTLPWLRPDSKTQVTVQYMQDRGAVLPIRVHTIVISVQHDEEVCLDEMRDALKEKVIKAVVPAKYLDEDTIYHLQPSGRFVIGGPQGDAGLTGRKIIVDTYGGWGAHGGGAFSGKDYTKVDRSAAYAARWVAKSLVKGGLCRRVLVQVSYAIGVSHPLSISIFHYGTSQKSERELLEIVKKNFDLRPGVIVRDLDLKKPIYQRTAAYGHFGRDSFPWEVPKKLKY
For assay [2], the system named is B16-F10. Description: Antiproliferative activity against mouse B16-F10 cells harboring wild type MTAP assessed as inhibition of cell viability measured for 96 hrs by SRB assay. As to conditions: B16-F10, 96 h. In kind it is functional, cell-based. For orientation: Sulforhodamine B stains cellular protein and so reports cell mass.
Assay [3] concerns B16-F10. Description: Antiproliferative activity against MTAP knockout mouse B16-F10 cells assessed as inhibition of cell viability measured for 96 hrs by SRB assay. It counts as functional, cell-based. As to conditions: B16-F10, 96 h.
Assay [4] in a line: Selectivity index, ratio of IC50 for antiproliferative activity against mouse B16-F10 cells harboring wild type MTAP assessed as inhibition of cell viability to IC50 for antiproliferative activity against MTAP knockout mouse B16-F10 cells assessed as inhibition of cell viability. It counts as functional.
The subject of the next assay is SF-126. The experiment in a line: Induction of DNA damage in human SF-126 cells harboring wild type MTAP assessed as increase in gammaH2AX level at 0.1 to 10 uM measured for 96 hrs by Western blot analysis. It counts as functional, cell-based. As to conditions: dose 0.1-10 µM. On the technique in general: Immunoblotting shows a protein as a band on a membrane.
For the next assay, the system named is MIA PaCa-2. The experiment in a line: Antitumor activity against MTAP null human MIA PaCa-2 cells xenografted in mouse assessed as tumor growth inhibition at 30 to 60 mg/kg, po measured after 28 days. In kind it is functional, organism-based. As to conditions: dose 30-60 mg/kg, time 28.0 day. (In xenograft studies the graft and the host belong to different species.)

“And” between values parts separate entries of the source, which are not always exact repeats. Equal entries are not always repeated. The source made the active and inactive calls. No cut-off for these calls is given here.

Take `O=c1c(-c2ccc3c(c2)CCO3)nc2cnc(NCC(F)(F)F)nc2n1-c1ccc(OC(F)F)cc1`: the results for the IC50 (in assay [1]; in the assay on B16-F10 [2]; in the assay on B16-F10 [3]) were 89 nM, > 20000 nM and 2480 nM, respectively. Also, the “Ratio IC50” value in assay [4] is listed as >8.1.
Take `O=c1c(-c2ccc3ncn(C4CCCC4)c3c2)nc2cnc(NCC(F)(F)F)nc2n1-c1ccc(OC(F)F)cc1`: the IC50 in assay [1] is 108 nM and 23.1 nM; in the assay on B16-F10 [2], 9740 nM; in the assay on B16-F10 [3], 300 nM. Moreover, the “Ratio IC50” value in assay [4] came to 32.5.
Turning to `O=c1c(-c2ccc3c(c2)CCCO3)nc2cnc(NCC(F)(F)F)nc2n1-c1ccc(OC(F)F)cc1`, the results for the IC50 (in assay [1]; with B16-F10 [2]; in the assay with B16-F10 [3]) were 37.7 nM, > 20000 nM and 1670 nM, respectively. For the same compound, in assay [4], the “Ratio IC50” value is >12.
For `COc1ccc(-c2nc3cnc(NCC(F)(F)F)nc3n(-c3ccc(Br)cc3)c2=O)cc1`, the IC50 in assay [1] is 151 nM; in the assay with B16-F10 [2], > 20000 nM; with B16-F10 [3] it was 6540 nM. Further, the “Ratio IC50” value in assay [4] is recorded as >3.1.
For `CC(C)n1cnc2ccc(-c3nc4ccc(C5CC5)cc4n(-c4ccc(OC(F)F)cc4)c3=O)cc21` the same measures were 138 nM, 3330 nM, 370 nM and 9.
Taken in the same sequence, the figures for `Cn1cnc2ccc(-c3nc4cnc(NCC5CC5)nc4n(-c4ccc(OC(F)F)cc4)c3=O)cc21` were 613 nM, 7240 nM, 2960 nM and 2.4.
As for `COc1ccc(-n2cc3cnc(NCC(F)(F)F)nc3c(-c3ccc(Br)cc3)c2=O)cc1`, the IC50 in assay [1] stood at 56.1 nM; in the assay with B16-F10 [2], 2150 nM; in the assay with B16-F10 [3], 330 nM. The “Ratio IC50” value in assay [4] worked out at 6.5. The outcome with SF-126 was inactive. For the same compound, the result in the assay with MIA PaCa-2 was Active.
With `O=c1c(-c2ccc3nncn3c2)nc2ccc(C3CC3)cc2n1-c1ccc(OC(F)F)cc1`, the IC50 came to 103 nM in assay [1], 14900 nM with B16-F10 [2] and 1130 nM in the assay on B16-F10 [3]. In addition, in assay [4], the “Ratio IC50” value is on record as 13.2.
In the case of `Cn1cnc2ccc(-c3nc4ccc(C5CCC5)cc4n(-c4ccc(OC(F)F)cc4)c3=O)cc21`, the IC50 in assay [1] stood at 228 nM.
Same read-out and setting: to `COc1ccc(-c2nc3cnc(NCC(F)(F)F)nc3n(-c3ccc(OC(F)F)nc3)c2=O)cc1` belongs > 1000 nM; to `COc1ccc(-c2nc3cnc(NCC(F)(F)F)nc3n(-c3cccc(OC(F)F)c3)c2=O)cc1`, > 1000 nM.
`COc1ccc(-c2nc3cnc(NCC(F)(F)F)nc3n(-c3ccc(C(F)(F)F)cc3)c2=O)cc1`: the half-maximal inhibitory concentration (IC50) in assay [1] was > 1000 nM.
Same read-out and setting: with `Cn1cnc2ccc(-c3nc4cnc(NC5CC5)nc4n(-c4ccc(OC(F)F)cc4)c3=O)cc21` the figure was 49 nM.
For the compound `Cn1cc2cc(-c3nc4ccc(C5CC5)cc4n(-c4ccc(OC(F)F)cc4)c3=O)ccc2n1`, the IC50 is 79.2 nM in assay [1], > 20000 nM in the assay on B16-F10 [2] and 4360 nM in the assay on B16-F10 [3]. The “Ratio IC50” value in assay [4] is recorded as >4.6.
With `COc1ccc(-c2nc3cnc(NCC(F)(F)F)nc3n(-c3ccc(OC(F)F)cc3)c2=O)cc1`, the IC50 in assay [1] is 100 nM; in the assay on B16-F10 [2], > 20000 nM; in the assay on B16-F10 [3], 3300 nM. The “Ratio IC50” value in assay [4] was >6.1.
With `O=c1c(-c2ccc3ncoc3c2)nc2ccc(C3CC3)cc2n1-c1ccc(OC(F)F)cc1`, in assay [1], the IC50 was 98.5 nM.
On the same count and under the same terms, with `COc1ccc(-c2nc3cnc(NCC(F)(F)F)nc3n(-c3ccc(OCC(F)F)cc3)c2=O)cc1` the figure was > 1000 nM.
With `O=c1c(-c2ccc3nccn3c2)nc2ccc(C3CC3)cc2n1-c1ccc(OC(F)F)cc1`, the IC50 is 63.9 nM in assay [1], > 20000 nM in the assay with B16-F10 [2] and 780 nM with B16-F10 [3]. For the same compound, the “Ratio IC50” value in assay [4] is >25.6.
Taken in the same sequence, the figures for `COc1ccc(-c2nc3cnc(NCC(F)(F)F)nc3n(-c3ccc(Cl)cc3)c2=O)cc1` were 138 nM, > 20000 nM, 9270 nM and >2.2.
Consider `COc1ccc2nc(-c3ccc4ncn(C)c4c3)c(=O)n(-c3ccc(OC(F)F)cc3)c2c1`, for which the IC50 is 89 nM in assay [1], > 20000 nM in the assay with B16-F10 [2] and 2480 nM with B16-F10 [3]. Also, the “Ratio IC50” value in assay [4] is reported as >8.1.
As for `Cn1cnc2ccc(-c3nc4cnc(C5CC5)cc4n(-c4ccc(OC(F)F)cc4)c3=O)cc21`, in assay [1], the IC50 amounted to 613 nM.
For the compound `CCOc1ccc2nc(-c3ccc4ncn(C)c4c3)c(=O)n(-c3ccc(OC(F)F)cc3)c2c1`, the figures for the IC50 (in assay [1]; in the assay on B16-F10 [2]; in the assay with B16-F10 [3]) were 104 nM, > 20000 nM and 3080 nM, respectively. Further, the “Ratio IC50” value in assay [4] was >6.5.
Take `Cc1nc2ccc(-c3nc4cnc(NCC(F)(F)F)nc4n(-c4ccc(OC(F)F)cc4)c3=O)cc2n1C`: the IC50 in assay [1] amounted to 64.4 nM; in the assay with B16-F10 [2], 18100 nM; with B16-F10 [3] it was 530 nM. Moreover, the “Ratio IC50” value in assay [4] is 34.2.
Turning to `O=c1c(-c2ccc3ncn(C4CC4)c3c2)nc2cnc(NCC(F)(F)F)nc2n1-c1ccc(OC(F)F)cc1`, the IC50 in assay [1] worked out at 83 nM; in the assay on B16-F10 [2], 16600 nM; in the assay with B16-F10 [3], 400 nM. Besides, in assay [4], the “Ratio IC50” value is recorded as 41.4.
For the compound `Cn1cnc2ccc(-c3nc4cnc(NCC(F)(F)F)nc4n(-c4ccc(OC(F)F)cc4)c3=O)cc21`, the results for the IC50 (in assay [1]; with B16-F10 [2]; in the assay with B16-F10 [3]) were 63.4 nM, > 20000 nM and 310 nM, respectively. For the same compound, in assay [4], the “Ratio IC50” value is reported as >64.5.
For the compound `O=c1c(-c2ccc3ncnn3c2)nc2ccc(C3CC3)cc2n1-c1ccc(OC(F)F)cc1`, the IC50 in assay [1] was 115 nM; in the assay on B16-F10 [2] it was > 20000 nM; in the assay on B16-F10 [3] it was 14300 nM. For the same compound, the “Ratio IC50” value in assay [4] is >1.4.
With `Cn1cc2cc(-c3nc4cnc(NCC(F)(F)F)nc4n(-c4ccc(OC(F)F)cc4)c3=O)ccc2n1`, the IC50 was 38.8 nM in assay [1], > 20000 nM in the assay with B16-F10 [2] and 1250 nM with B16-F10 [3]. Further, the “Ratio IC50” value in assay [4] is >16.
For `O=c1c(-c2ccn3nccc3c2)nc2ccc(C3CC3)cc2n1-c1ccc(OC(F)F)cc1` the same measures were 81.4 nM, 13900 nM, 1340 nM and 10.4.
Taken in the same sequence, the figures for `CC1=Nc2ccc(-c3nc4ccc(C5CC5)cc4n(-c4ccc(OC(F)F)cc4)c3=O)cc2C1(C)C` were 89.2 nM, 5260 nM, 760 nM and 6.9.
For the compound `Cn1nnc2ccc(-c3nc4ccc(C5CC5)cc4n(-c4ccc(OC(F)F)cc4)c3=O)cc21`, the values for the IC50 (in assay [1]; in the assay with B16-F10 [2]; in the assay with B16-F10 [3]) were 28.9 nM, 9070 nM and 1520 nM, respectively. Also, the “Ratio IC50” value in assay [4] amounted to 3.8.
For `O=c1c(-c2ccc3ncccc3c2)nc2cnc(NCC(F)(F)F)nc2n1-c1ccc(OC(F)F)cc1`, the IC50 in assay [1] turned out to be 435 nM.
Take `Cn1cnc2ccc(-c3nc4ccc(C5CC5)nc4n(-c4ccc(OC(F)F)cc4)c3=O)cc21`: the IC50 came out at 23.1 nM in assay [1], 800 nM in the assay with B16-F10 [2] and 210 nM in the assay with B16-F10 [3]. For the same compound, in assay [4], the “Ratio IC50” value was 3.8.

By IC50 is commonly meant the concentration that inhibits the measured activity by half.
